The values below come from patent US8299048B2, “Hexahydrocyclopentyl[f]indazole sulfonamides and derivatives thereof as selective glucocorticoid receptor modulators” (Merck Sharp & Dohme Corp., priority 2008, dated 2012).

For assay [1], the target named is T1, human GR (Homo sapiens, UniProt P04150).
T1 sequence (P04150 1-777): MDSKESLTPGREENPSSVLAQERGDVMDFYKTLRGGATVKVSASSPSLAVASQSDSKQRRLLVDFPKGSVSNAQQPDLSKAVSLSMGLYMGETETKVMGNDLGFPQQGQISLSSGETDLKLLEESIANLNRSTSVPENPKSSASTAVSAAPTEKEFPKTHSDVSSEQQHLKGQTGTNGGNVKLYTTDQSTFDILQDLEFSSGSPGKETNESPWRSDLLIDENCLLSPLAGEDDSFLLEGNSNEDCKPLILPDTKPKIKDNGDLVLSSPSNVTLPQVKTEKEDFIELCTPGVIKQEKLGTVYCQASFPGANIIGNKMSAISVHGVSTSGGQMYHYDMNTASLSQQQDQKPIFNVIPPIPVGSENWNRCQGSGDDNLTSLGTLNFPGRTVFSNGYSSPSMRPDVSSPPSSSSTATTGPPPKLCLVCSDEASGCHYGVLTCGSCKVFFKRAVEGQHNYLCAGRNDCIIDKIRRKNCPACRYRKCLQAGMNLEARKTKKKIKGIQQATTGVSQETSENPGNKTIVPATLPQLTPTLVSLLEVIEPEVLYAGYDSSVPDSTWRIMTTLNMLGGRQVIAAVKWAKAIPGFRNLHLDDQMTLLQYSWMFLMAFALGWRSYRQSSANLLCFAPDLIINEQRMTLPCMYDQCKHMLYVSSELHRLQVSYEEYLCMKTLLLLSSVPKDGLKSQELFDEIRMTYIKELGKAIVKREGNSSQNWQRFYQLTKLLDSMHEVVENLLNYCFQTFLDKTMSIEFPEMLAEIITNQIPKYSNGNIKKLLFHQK
The experiment in a line: Trans-Activation Modulation of Glucocorticoid Receptor (GRAMMER), MMTV-LUC reporter, agonist mode. Format: cell-based. Details: endogenous in cells. Particulars: maximum activity; for Emax: A549, A549 cells, read-out: Transactivation A549 Cells GRAMMER Emax. An excerpt: This assay assesses the ability of test compounds to control transcription from the MMTV-LUC reporter gene in lung adenocarcinoma A549 cells or MDA-MB-453 cells, a human breast cancer cell line that naturally expresses the human GR. The assay measures induction of a modified MMTV LTR/promoter linked to the LUC reporter gene.
The routine transient assay consists of plating 7,000-25,000 cells/well of a white, clear-bottom 96-well plate. Alternatively, 384-well plates can be used at a cell concentration of 10,000/well. The media that the cells are plated in is “exponential growth medium” which consists of phenol red-free RPMI1640 containing 10% FBS, 4 mM L-glutamine, 20 mM HEPES, 10 ug/mL human insulin, and 20 ug/mL gentamicin. Incubator conditions are 37° C. and 5% CO2. The transfection is done in batch mode. The cells are trypsinized and counted to the right cell number in the proper amount of fresh media. It is then gently mixed with the FuGene6/DNA mix and plated onto the 96 or 384-well plate, all the wells receive 100 uL or 40 uL, respectively, of medium+lipid/DNA complex then incubated 37° C. overnight. The transfection cocktail consists of serum-free OptiMEM, FuGene6 reagent and DNA. The manufacturer's (Roche Biochemical) protocol for cocktail setup is as follows: The lipid to DNA ratio is approximately 2.5:1 and the incubation time is 20 min at room temperature. Sixteen to 24 hours after transfection, the cells are treated with dexamethasone to a final concentration of 10 nM as well as the compound of interest, such that final DMSO (vehicle) concentration is equal to or less than 1%. Each plate also contains samples that are treated with 10 nM dexamethasone alone, which is used as the 100% activity control. The cells are exposed to the compounds for 24 hours. After 24 hours, the cells are lysed by a Promega cell culture lysis buffer for approximately 30 min and then the luciferase activity in the extracts is assayed in the 96-well format luminometer. In 384-well format, Steady-Glo (Promega) or Steady-Lite (PerkinElmer) can be used by adding an equal volume of reagent to the media present in each well. Activity induced by 10 nM dexamethasone alone is set at 100% activity. Antagonist activity is calculated by determining the decrease in dexamethasone-induced activity in response to compound treatment relative to samples that were treated with dexamethasone alone. […] This transactivation assay can be performed in an agonist and antagonist mode to identify these different activities.

For assay [2], the target named is T1, human GR. Put plainly: Transrepression Assay (GITAR), TNFα-β-lactamase reporter in U937 cells. Format: cell-based. Details: U937 cells contain an endogenous glucocorticoid receptor (GR); endogenous in cells; host or cells: U937 cells stably transfected with the TNF-alpha promoter/beta-lactamase reporter. The note with it: for GITAR > GRAMM % SEP: GITAR Emax minus GRAMMER Emax. The source says:
This assay assesses the ability of test compounds to control transcription from the TNFα-β-lactamase reporter gene in U937 cells, a human myelomonocytic leukemia cell line that naturally expresses the human GR. The assay measures compound dependent-repression of the TNFa promoter linked to a reporter gene.
The human U937 cells that had been stablely transfected with the TNF-α promoter driving β-lactamase are used for this assay. U937 cells contain an endogenous glucocorticoid receptor (GR). Cells are maintained in RPMI 1640 Growth medium (Gibco Cat#11875-093) containing 25 mM HEPES, 10% FBS, 2 mM L-Glutamine, 1 mM Sodium pyruvate, 25 μg/ml Gentamicin (Gibco Cat#15710-064), 1:1000 2-Mercaptoethanol (Gibco Cat#21985-023) and 0.8 mg/ml G418 (Gibco Cat#10131-027). The density of the cells in the flask needs to be about 1×10^6−3×10^6/ml at the time of harvest. Usually, the cells are split to 1.2˜1.4×10^5/ml (1:10) 3 days prior to the assay. 50,000 cells/well are plated in 96 well black-walled plates the day of assay. Test compounds are added 10 μL/well, and cells are incubated at 37° C. for 30˜45 min. For assaying compounds, first dilute 1:10 in DMSO to make 1 mM, then further dilute 1:100 in medium to make 10× stock prior to adding to the cells. Add 50 ng/mlPMA (Sigma, cat# P8139) 10 μL/well to a final concentration 5 ng/ml, and 1 μg/ml LPS (Sigma, cat# L4130) 10 μL/well to a final concentration 100 ng/ml. Incubate cells at 37° C. overnight for ˜18 hr. PMA is stored frozen as 100 μg/ml stock in DMSO. Dilute 1:10 in DMSO for a working stock of 10 μg/ml and store at −20 C. For assaying, dilute the 10 μg/ml working stock 1:200 in medium to make a 10× solution (50 ng/ml). Store frozen LPS at 1 mg/ml in PBS, dilute 1:1000 in medium to make 10× (1 μg/ml) for the assay. Add 6× loading buffer (CCF2-AM) 20 μL/well, and incubate at room temperature for 70˜90 min. […] The activity repressed by 100 nM dexamethasone alone is set as 100% activity.

Where [3] appears, read: U-937, U937 cells, maximum activity, read-out: Transrepression U937 Cells GITAR Emax.
Where [4] appears, read: U-937, activity repressed by 100 nM dexamethasone alone set as 100%, read-out: maximal activity in the transrepression (GITAR) assay.

Some results are limits rather than exact numbers.

For `C[C@]12Cc3cnn(-c4ccc(F)cc4)c3C=C1CC[C@@H]2CN(CC1CC1)S(=O)(=O)c1ccccc1Cl` [Example 12, 2-chloro-N-(cyclopropylmethyl)-N-{[(4αR,5S)-1-(4-fluorophenyl)-4α-methyl-1,4,4α,5,6,7-hexahydrocyclopenta[f]indazol-5-yl]methyl}benzenesulfonamide], the Emax on human GR [1] is 34.4%; at human GR [2] (setting [3]), 64.2%; at human GR [2] (setting [4]), over 5%. Also, on human GR [2], the “GITAR > GRAMM % SEP” value amounted to 29.8%.

Regarding `C[C@]12Cc3cnn(-c4ccc(F)cc4)c3C=C1CC[C@@H]2CN(CC1CC1)S(=O)(=O)c1ccccc1Cl` [Example 22, 2-chloro-N-(cyclopropylmethyl)-N-{[(4αR,5S)-1-(4-fluorophenyl)-4α-methyl-1,4,4α,5,6,7-hexahydrocyclopenta[f]indazol-5-yl]methyl}benzenesulfonamide], the “Transactivation A549 Cells GRAMMER Emax” value on human GR [1] (A549 cells) was 27.9%. Moreover, the “GITAR > GRAMM % SEP” value on human GR [2] is recorded as 43.9%. Further, at human GR [2] (U937 cells, maximum activity), the “Transrepression U937 Cells GITAR Emax” value was 71.8%.

For the compound `C[C@]12Cc3cnn(-c4ccc(F)cc4)c3C=C1CC[C@@H]2CN(CCO)S(=O)(=O)c1ccc(-c2cnco2)s1` [Example 57, N-{[(4αR,5S)-1-(4-fluorophenyl)-4α-methyl-1,4,4α,5,6,7-hexahydrocyclopenta[f]indazol-5-yl]methyl}-N-(2-hydroxyethyl)-5-(1,3-oxazol-5-yl)thiophene-2-sulfonamide], the figures for the Emax on human GR [1], on human GR [2] (setting [3]) and on human GR [2] (setting [4]) were 2.7%, 23.8% and over 5%, respectively. Further, at human GR [2], the “GITAR > GRAMM % SEP” value is on record as 21.0%.

As to `C[C@]12Cc3cnn(-c4ccc(F)cc4)c3C=C1CC[C@@H]2CN(CCO)S(=O)(=O)c1ccc(C#N)cc1` [Example 62, 4-cyano-N-{[(4αR,5S)-1-(4-fluorophenyl)-4α-methyl-1,4,4α,5,6,7-hexahydrocyclopenta[f]indazol-5-yl]methyl}-N-(2-hydroxyethyl)benezenesulfonamide], the Emax on human GR [1] is 26%; on human GR [2] (setting [3]) it was 68.5%; at human GR [2] (setting [4]), over 5%. The “GITAR > GRAMM % SEP” value at human GR [2] amounted to 42.5%.

As to `C[C@]12Cc3cnn(-c4ccc(F)cc4)c3C=C1CC[C@@H]2CN(CCc1ccccc1F)S(=O)(=O)C1CC1` [Example 101, N-[2-(2-fluorophenyl)ethyl]-N-{[(4αR,5S)-1-(4-fluorophenyl)-4α-methyl-1,4,4α,5,6,7-hexahydrocyclopenta[f]indazol-5-yl]methyl}cyclopropanesulfonamide], the Emax was 62.8% at human GR [1], 95.4% on human GR [2] (setting [3]) and over 5% on human GR [2] (setting [4]). Also, the “GITAR > GRAMM % SEP” value on human GR [2] was 32.6%.
